# Data as given in patent US6017958A, “Method of treating malignant tumors with thyroxine analogues having no significant hormonal activity” (Octamer, Inc., priority 1997, dated 2000).
# Read-outs that look alike come from different tables or passages of the source.
# Legend:
# [1] = test system: noncancer cells; assay: Replication of noncancer cells in culture; assay type: cell-based; conditions: cells growing in cultures; not shown
# [2] = test system: E-ras 20 cells (E-ras transformed bovine endothelial cells); assay: Tumorigenicity of pretreated E-ras 20 cells in athymic nude mice; design: species or system bovine cells in nude mice; conditions: 10 μM pretreatment, no in vivo drug treatment
# [3] = test system: MDA-MB-231 cells; assay: Time-lapse videomicroscopy of mitosis; assay type: cell-based, human
# Protocol: Cells in sealed T-25 tissue culture flasks were placed into a temperature-controlled incubation chamber built to enclose an inverted phase-contrast microscope. The chamber was shielded from ambient room light. Every 5 min, the microscope light was switched on for 12s, during which time an image was captured by an imaging system obtained from Compix, Inc. (Mars, Pa., USA). Image sequences were analyzed with software from the same company.
# ^a Mitoses were monitored by timelapse videomicroscopy during
# continuous exposure of cells to DIME;
# ^b Fusion of daughter cells usually occurred within minutes of
# cytokinesis and involved 2-5 daughter cells.
# [4] = test system: HL-60 (promyelocytic leukemia); assay: Cytocidal action/growth inhibition, HL-60; assay type: cell-based; conditions: Homo sapiens, 72 h
# Protocol: (§1) Seven human cancer cell lines were obtained from the American Tissue Culture Collection (Rockville, Md.) and maintained in the recommended growth media. Cells were seeded into wells (2 cm^2) at a density of 2×10^4 cells/cm^2. Various concentrations of Compounds 1-13 were added to the media at the time of seeding.
# (§2) The cultures were incubated for 72 hours at 37° C. (5% CO2 atmosphere). Following incubation, cells were detached with trypsin and counted in a hemocytometer.
# (§3) I100 designates the concentration at which no viable cells remained; I50 the concentration at which 50% viable cells remained, as compared to a control.
# E-ras 20 cells were cultured as reported, Bauer et al., 1996, "Modification of growth related enzymatic pathways and apparent loss of tumorigenicity of a ras-transformed bovine endothelial cell line by treatment with 5-iodo-6-amino-1,2-benzopyrone (INH2 BP)" Intl. J. Oncol. 8:239-252; HT-144 (melanoma), DU-145 (prostatic cancer), HeLa (cervical cancer), HL 60 (promyelocytic leukemia), MDA-MB-231 (mammary cancer), SK-Br-3 (mammary cancer), T47D (ductal mammary cancer), A559 (lung cancer) were obtained from American Type Culture Collection (Rockville, Md.) and cultured in prescribed media. […]
# [5] = test system: A-549 (lung cancer) cell extracts, esterase; assay: Esterase cleavage of DIME by A-549 cell extracts (TLC); assay type: in vitro ADME, human
# Protocol: In the experiment shown in lines 1 and 2 the esterase activity of the extract occurs during 4 hours incubation with 1 μM DIME. […] Lines 3 and 4 depict the same experiments as in lines 1 and 2, except the cell extracts were prepared from intact cells preincubated for 24 hours with 1 μM DIME, then washed and extracted.
# (a) mouse tissue homogenate (brain, kidney, liver lung) consisting of 0.2 g of tissue in 1.0 ml. of homogenization buffer (50 mM Tris (pH 7.4), 400 mM NaCl, 10 mM MgCl2, 1 mM EDTA, 0.5% NP-40, 0.5 mM PMSF) each were combined with 1.0 ml of MES buffer (100 mM ph 6.5) containing 20 μM [^14 C]-DIME (10.55 mCi/mmol), and the mixtures were incubated at 37° C. for 4 hours. Then to each tube was added sequentially ethyl acetate (1.5 ml), ammonium sulfate (900 mg) and 60% perchloric acid (160 μl), with vortexing after each addition. After standing for 10 minutes, phase separation was enhanced by benchtop centrifugation. The upper (ethyl acetate) layer was drawn off, and the lower aqueous and interphase material was extracted with a second portion of ethyl acetate (1.5 ml). The ethyl acetate extracts (combined) contained more than 90% of the total cpm present in the original incubate (ca. 4×10^5 cpm). […]
# [6] = test system: MDA-MB-231 cells; assay: Colony formation / cell killing; assay type: cell-based, human
# Protocol: Assays for Quantitation of colony formation were performed as reported, Vidair, et al., 1986 "Evaluation of a Role for Intracellular Na^+, K^+, Ca2^+ and Mg^2+ in hyperthermic cell killing" Radiation Res. 105:187-200.
# [7] = 0.25 to 1.0 g/kg daily per os; cited from earlier work
# [8] = test system: iodine uptake into the thyroid; conditions: rats, as compared to thyroxine (Money et al., 1959); cited from earlier work
# [9] = test system: Rana pipiens tadpoles; conditions: tadpole metamorphosis; cited from earlier work
# [10] = test system: T47D (ductal mammary cancer); assay: Cytocidal action/growth inhibition, T47D; assay type: cell-based; conditions: Homo sapiens, 72 h
# Protocol: as §1, §2, §3
# (§4) E-ras 20 cells were cultured as reported, Bauer et al., 1996, "Modification of growth related enzymatic pathways and apparent loss of tumorigenicity of a ras-transformed bovine endothelial cell line by treatment with 5-iodo-6-amino-1,2-benzopyrone (INH2 BP)" Intl. J. Oncol. 8:239-252; HT-144 (melanoma), DU-145 (prostatic cancer), HeLa (cervical cancer), HL 60 (promyelocytic leukemia), MDA-MB-231 (mammary cancer), SK-Br-3 (mammary cancer), T47D (ductal mammary cancer), A559 (lung cancer) were obtained from American Type Culture Collection (Rockville, Md.) and cultured in prescribed media. The effect of DIME was tested in cultures with a starting cell density of 2×10^4 cells per cm^2 and comparison of the effect of DIME on cell growth (intact cells identified by Trypan blue exclusion) was assayed by direct cell counting after trypsinization in a hemocytometer 72 hours after drug addition.
# (§5) For DIME-exposure experiments cells were seeded into 2 cm^2 wells at a density of 2×10^4 cells/cm^2. DIME at various concentrations was added to the medium at the time of seeding. The cell cultures were then incubated for 3 days (37° C. in 5% at CO2 atmosphere).
# [11] = test system: seven human cancer cell lines; assay: Cytocidal action on human cancer cell lines; assay type: cell-based
# Protocol: as §1, §2
# [12] = test system: HT 144 (melanoma); assay: Cytocidal action/growth inhibition, HT 144; assay type: cell-based; conditions: Homo sapiens
# Protocol: as §1, §2, §3, §4, §5
# [13] = Table 4, read-out: I100 (no viable cells remained)
smiles,measurement,setting,value
"COC(=O)c1cc(I)c(Oc2ccc(OC)cc2)c(I)c1 [Compound 1, Methyl 3,5-diiodo-4-(4'-methoxyphenoxy)benzoate]",inhibition of replication of noncancer cells,[1],inhibited to varying degrees
same,tumor appearance after 3 months,[2],Tumors did not appear even after 3 months
same,increase of average time spent in mitosis,[3]; 1 μM,more than 20 fold
same,mitoses yielding daughter cells which fused (share),[3]; 1 μM,Twenty percent
same,rate of entry into mitosis / traversal of interphase,[3]; 1 μM,did not affect the rate at which the cells traversed interphase
same,No. of mitosis followed by fusion of daughter cells,"[3]; 1.0 μM, 35 mitoses monitored, control 0 of 32",7
same,delay in mitosis,"[3]; 1 μM, control approximately 0.5 hr",13 h
same,daughter cells in irregular division (FIG. 12),"[3]; 1 μM, control exactly 2",6 daughter cells
same,IC50,"[4]; Table 4, read-out: I50",0.6 µM
same,IC100,[4]; [13],3 µM
same,ester bond cleavage by A-549 cells,[5]; A-549 cells,readily cleave the ester bond
same,esterase induction,[5]; intact cells preincubated 24 hours with 1 μM DIME,esterase is not induced by DIME
same,colony forming ability,"[6]; 1-2 μM, 10 days",profoundly diminished
same,cell killing after drug removal,[6]; DIME removed prior to end of 8 hours incubation,cell killing was prevented and drug-induced morphologic changes were completely reversed
same,noticeable toxicity,[7],no noticeable toxicity
same,inhibition of uptake of iodine into the thyroid,[8],15%
same,metamorphosis / cell differentiating activity,[9],no significant metabolic or cell differentiating activity
same,IC50,"[10]; Table 4, read-out: I50",0.7 µM
same,IC100,[10]; [13],3.5 µM
same,IC50,"[10]; day 3, Table 11, read-out: I50 (day 3)",0.7 µM
same,cytocidal action,[11]; 72 hours,maximally active
same,activity in cellular assays and in vivo,[11]; cellular assays and in vivo,highly active
same,IC50,"[12]; HT-144, 72 h, day 3, Table 11, read-out: I50 (day 3)",0.5 µM
same,IC50,"[12]; HT-144, 72 h, Table 4, read-out: I50",0.5 µM
same,IC100,"[12]; HT-144, 72 h, Table 4, read-out: I100 (no viable cells remained)",4 µM
